From PubChem BioAssay AID330 (DTP/NCI, 2004)
Values joined by “and” are separate entries in the source; they are usually repeats but may differ in a detail not shown here. Identical values can stand only once. Toxic doses and inconclusive results are not listed. The calls were made as follows: active = survival T/C of 150% or more; inactive = T/C below 125% in these data.

System: P388 leukemia ip, CD2F1 mice, survival T/C
Test: NCI In Vivo Anticancer Drug Screen. Data for tumor model P388 Leukemia (intraperitoneal) in CD2F1 (CDF1) mice
Conditions: endpoint: median survival time, higher = longer survival
Method in brief: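 Mice carrying the transplanted tumor received test compound or vehicle. Survival was recorded in each group, and the value is the treated-group measurement divided by that of the vehicle-treated control group.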

[1] = dose: 60.0 mg/kg/injection, schedule: Q01DX005 (ip), vehicle: Klucel (hydroxypropylcellulose) (HPC)
[2] = dose: 240.0 mg/kg/injection, schedule: Q01DX005 (ip), vehicle: Klucel (hydroxypropylcellulose) (HPC)
[3] = dose: 50.0 mg/kg/injection, schedule: Q01DX005 (ip), vehicle: Klucel (hydroxypropylcellulose) (HPC)
[4] = dose: 100.0 mg/kg/injection, schedule: Q01DX005 (ip), vehicle: Klucel (hydroxypropylcellulose) (HPC)
[5] = dose: 200.0 mg/kg/injection, schedule: Q01DX005 (ip), vehicle: Klucel (hydroxypropylcellulose) (HPC)
[6] = dose: 25.0 mg/kg/injection, schedule: Q01DX005 (ip), vehicle: Klucel (hydroxypropylcellulose) (HPC)
[7] = dose: 12.5 mg/kg/injection, schedule: Q01DX005 (ip), vehicle: Klucel (hydroxypropylcellulose) (HPC)
[8] = dose: 50.0 mg/kg/injection, schedule: Q01DX009 (ip), vehicle: Klucel (hydroxypropylcellulose) (HPC)
[9] = dose: 100.0 mg/kg/injection, schedule: Q01DX009 (ip), vehicle: Klucel (hydroxypropylcellulose) (HPC)
[10] = dose: 200.0 mg/kg/injection, schedule: Q01DX009 (ip), vehicle: Klucel (hydroxypropylcellulose) (HPC)
[11] = dose: 50.0 mg/kg/injection, schedule: Q01DX005 (ip), vehicle: saline with Tween-80
[12] = dose: 100.0 mg/kg/injection, schedule: Q01DX005 (ip), vehicle: saline with Tween-80
[13] = dose: 200.0 mg/kg/injection, schedule: Q01DX005 (ip), vehicle: saline with Tween-80

Measured: T/C

Cc1ccc(NC(=O)N(C)C)c(C)c1
inactive: [1] 97 % of control | dose: 120.0 mg/kg/injection, schedule: Q01DX005 (ip), vehicle: Klucel (hydroxypropylcellulose) (HPC) 97 % of control | [2] 94 % of control

Fc1ccc(Nc2c3ccccc3nc3c2cnn3-c2ccccc2)cc1
inactive: [3] 91 % of control | [1] 86 % of control | [4] 87 % of control | [5] 87 % of control | [2] 90 % of control

CCNC(=O)/C=C(C)/C=C/C=C(C)/C=C/c1c(C)cc(OC)c(C)c1C
inactive: [6] 86 % of control | [3] 90 % of control | [4] 100 % of control and 101 % of control | [5] 108 % of control

OC1C(O)C(O)C(O)C(O)C1O.[Cu+2].[Cu] (centres undefined)
inactive: dose: 3.12 mg/kg/injection, schedule: Q01DX005 (ip), vehicle: Klucel (hydroxypropylcellulose) (HPC) 93 % of control | dose: 6.25 mg/kg/injection, schedule: Q01DX005 (ip), vehicle: Klucel (hydroxypropylcellulose) (HPC) 93 % of control | [7] 94 % of control | [6] 100 % of control

O=NN(c1ccc(Br)cc1)c1ccccn1
inactive: dose: 25.0 mg/kg/injection, schedule: Q01DX009 (ip), vehicle: other 102 % of control | dose: 50.0 mg/kg/injection, schedule: Q01DX009 (ip), vehicle: other 109 % of control | dose: 50.0 mg/kg/injection, schedule: Q01DX009 (ip), vehicle: saline with Tween-80 100 % of control | dose: 100.0 mg/kg/injection, schedule: Q01DX009 (ip), vehicle: other 109 % of control | dose: 100.0 mg/kg/injection, schedule: Q01DX009 (ip), vehicle: saline with Tween-80 100 % of control | dose: 200.0 mg/kg/injection, schedule: Q01DX009 (ip), vehicle: other 114 % of control | dose: 200.0 mg/kg/injection, schedule: Q01DX009 (ip), vehicle: saline with Tween-80 97 % of control | dose: 400.0 mg/kg/injection, schedule: Q01DX009 (ip), vehicle: other 112 % of control

CC(=O)C1=C(O)C(CC(C)C)NC1=O (centres undefined)
inactive: [6] 102 % of control | [3] 102 % of control | [4] 101 % of control

Cc1cc(C)c(OC(=O)NCCCl)c(C)c1
inactive: [3] 97 % of control | [4] 97 % of control | [5] 96 % of control

CCN(CC)N=Nc1ccc(NC(C)=O)cc1
inactive: dose: 6.25 mg/kg/injection, schedule: Q04DX003 (ip), vehicle: Klucel (hydroxypropylcellulose) (HPC) 102 % of control | dose: 12.5 mg/kg/injection, schedule: Q04DX003 (ip), vehicle: Klucel (hydroxypropylcellulose) (HPC) 101 % of control | dose: 25.0 mg/kg/injection, schedule: Q04DX003 (ip), vehicle: Klucel (hydroxypropylcellulose) (HPC) 102 % of control

C1=NCc2nnn(Cc3ccccc3)c2N1
inactive: [8] 102 % of control | [9] 98 % of control | [10] 108 % of control

CCOC(=O)C1(C)Sc2ccccc2N=C1c1ccccc1 (centres undefined)
inactive: dose: 60.0 mg/kg/injection, schedule: Q01DX005 (ip), vehicle: saline + Tween-80 + alcohol 98 % of control | dose: 120.0 mg/kg/injection, schedule: Q01DX005 (ip), vehicle: saline + Tween-80 + alcohol 93 % of control | dose: 240.0 mg/kg/injection, schedule: Q01DX005 (ip), vehicle: saline + Tween-80 + alcohol 89 % of control

CON=C1C(C)(C)C(=NOC)C1(C)C
inactive: [7] 90 % of control | [6] 86 % of control | [3] 99 % of control

CCOc1ccc2nc3cc(N=Nc4ccc(N)nc4N)ccc3c(N)c2c1
inactive: dose: 12.5 mg/kg/injection, schedule: Q01DX005 (ip), vehicle: saline with Tween-80 106 % of control | dose: 25.0 mg/kg/injection, schedule: Q01DX005 (ip), vehicle: saline with Tween-80 113 % of control | [11] 104 % of control and 105 % of control

Cc1[nH]nc2c1NC(=O)OC2
inactive: [11] 104 % of control | [12] 104 % of control | [13] 106 % of control

CCCCCCCCCCN(CCCCCCCCCC)C(C)C(=O)c1ccc2cc(Br)c3ccccc3c2c1 (centres undefined)
inactive: [11] 99 % of control | [12] 89 % of control | [13] 104 % of control

COc1ccc(-c2cn3c([nH]c(=O)c4cc(Br)ccc43)c2C#N)cc1
inactive: dose: 60.0 mg/kg/injection, schedule: Q01DX005 (ip), vehicle: saline with Tween-80 91 % of control | dose: 120.0 mg/kg/injection, schedule: Q01DX005 (ip), vehicle: saline with Tween-80 93 % of control | dose: 240.0 mg/kg/injection, schedule: Q01DX005 (ip), vehicle: saline with Tween-80 87 % of control

Cc1ccc(N=Nc2c(O)n(-c3ccccc3C)c(=S)n(-c3ccccc3Cl)c2=O)cc1
inactive: dose: 100.0 mg/kg/injection, schedule: Q01DX001 (ip), vehicle: Klucel (hydroxypropylcellulose) (HPC) 101 % of control | dose: 200.0 mg/kg/injection, schedule: Q01DX001 (ip), vehicle: Klucel (hydroxypropylcellulose) (HPC) 103 % of control | dose: 400.0 mg/kg/injection, schedule: Q01DX001 (ip), vehicle: Klucel (hydroxypropylcellulose) (HPC) 104 % of control

COC(=O)C(CCC(=O)CCl)N1C(=O)c2ccccc2C1=O (centres undefined)
inactive: dose: 25.0 mg/kg/injection, schedule: Q01DX009 (ip), vehicle: Klucel (hydroxypropylcellulose) (HPC) 108 % of control | [8] 106 % of control

O=c1[nH]c2cc([N+](=O)[O-])ccc2nc1/C=C(\O)c1ccc([N+](=O)[O-])cc1
inactive: dose: 60.0 mg/kg/injection, schedule: Q01DX005 (ip), vehicle: Klucel + Tween-80 87 % of control | dose: 120.0 mg/kg/injection, schedule: Q01DX005 (ip), vehicle: Klucel + Tween-80 86 % of control | dose: 240.0 mg/kg/injection, schedule: Q01DX005 (ip), vehicle: Klucel + Tween-80 90 % of control

CO/C(C)=C1/C(=O)O/C(=C/Nc2ccccc2)C1=O
inactive: [11] 107 % of control | [12] 107 % of control | [13] 96 % of control

Cc1ccc(NC(=O)Nc2cccnc2)cc1NC(=O)Nc1cccnc1
inactive: [8] 102 % of control | [9] 110 % of control | [10] 100 % of control

CCCCN(CCCC)CCNc1ccc(C)c2sc3ccc([N+](=O)[O-])cc3c(=O)c12
inactive: [3] 100 % of control | [4] 99 % of control | [5] 100 % of control

COc1c(CC(C)O)c2c3c(CC(C)O)c(OC)c(=O)c4cc(O)c5c(c6c(c(O)cc(c1=O)c26)OCO5)c43 (centres undefined)
inactive: dose: 25.0 mg/kg/injection, schedule: Q04DX002 (ip), vehicle: saline with Tween-80 101 % of control | dose: 50.0 mg/kg/injection, schedule: Q04DX002 (ip), vehicle: saline with Tween-80 109 % of control | dose: 100.0 mg/kg/injection, schedule: Q04DX002 (ip), vehicle: saline with Tween-80 101 % of control | dose: 200.0 mg/kg/injection, schedule: Q04DX002 (ip), vehicle: saline with Tween-80 115 % of control | dose: 400.0 mg/kg/injection, schedule: Q04DX002 (ip), vehicle: saline with Tween-80 115 % of control

CCCCCCCNC1=C(N2CC2)C(=O)C(NCCCCCCC)=C(N2CC2)C1=O
inactive: dose: 1.25 mg/kg/injection, schedule: Q01DX009 (ip), vehicle: saline 100 % of control | dose: 2.5 mg/kg/injection, schedule: Q01DX009 (ip), vehicle: saline 105 % of control and 107 % of control | dose: 5.0 mg/kg/injection, schedule: Q01DX009 (ip), vehicle: saline 105 % of control and 106 % of control | dose: 10.0 mg/kg/injection, schedule: Q01DX009 (ip), vehicle: saline 106 % of control and 94 % of control | dose: 20.0 mg/kg/injection, schedule: Q01DX009 (ip), vehicle: saline 115 % of control and 90 % of control

CCOC1(NC(=O)N(C)C)C2CCCCC21 (centres undefined)
inactive: [8] 98 % of control | [9] 104 % of control | [10] 101 % of control
